Test results published in patent publication US12565490B2, “Inhibitors of Receptor Interacting Protein Kinase I for the treatment of disease” (Board of Regents, The University of Texas System, priority 2020, dated 2026).

Test system: human monocytic cell line U937
Assay: Human U937 cellular necroptosis assay
Type: cell-based
Details: U-937; U937 cells stimulated with 25 ng/mL human TNFalpha and 25 μM z-VAD-FMK; 22 hr; viability by Cell Titer-Glo 2.0; read-out: hU937 IC50
Method: Human U937 Cellular Necroptosis Assay
The human monocytic cell line U937 (CRL-1593.2) may be purchased from ATCC. The cells are routinely maintained in RPMI-1640 Medium (Gibco, Catalog #11875-093) supplemented with 10% heat inactivated fetal bovine serum (Gibco, Catalog #16140-071), 100 units/mL penicillin and 100 μg/mL streptomycin (Gibco, Catalog #15140-122), in a humidified incubator (37° C., 5% CO2). For the assay, cells are resuspended in RPMI-1640 phenol red free Media (Gibco, Catalog #11835-030) supplemented with 10% fetal bovine serum (Sigma, Catalog #F2442), 100 units/mL penicillin and 100 ug/mL streptomycin. Cells are stimulated with 25 ng/mL human TNFalpha (Cell Sciences, Catalog #CSI15659B) and 25 μM z-VAD-FMK (R&D Systems, Catalog #FMK001) followed by seeding 5000 cells per well in a volume of 40 μL to a white, CulturPlate-384 (Perkin Elmer, Catalog #6007680). Stock solutions of the test compounds are prepared in 100% DMSO (Sigma, Catalog #D2650) and serially diluted 1:3 using 100% DMSO. Compounds are additionally diluted 1:40 in assay medium, and 10 μL/well was transferred to the plate. Following the compound addition, the plate is incubated at 37° C. and 5% CO2 for 22 hr. After 22 hr, viability is assessed with the addition of 20 μL of Cell Titer-Glo 2.0 (Promega, Catalog #G9243). The tissue culture plate is shaken on an orbital shaker at 300 RPM for 15 minutes at room temperature in the dark. Luminescence is measured using a PerkinElmer Envision™ plate reader. IC50 values are calculated using a four-parameter logistic curve fit using Genedata Screener software. Compounds disclosed herein are expected to have activity in this assay.

Row | SMILES | IC50 [nM]
1 | CN1C(=O)[C@@H](NC(=O)c2ncc(Cl)c(C3COCCO3)n2)COc2cc(Cl)cnc21 (single isomer, unassigned) [Example 163b] | 87.9
2 | COc1cc2c(cn1)N(C)C(=O)[C@@H](NC(=O)c1ncc(C)c(-c3ccccc3)n1)CC2 (stereo in doubt) [Example 11, N-(7-methoxy-1-methyl-2-oxo-2,3,4,5-tetrahydro-1H-pyrido[3,4-b]azepin-3-yl)-5-methyl-4-phenylpyrimidine-2-carboxamide] | 459
3 | Cc1ccc(-c2nc(C(=O)N[C@H]3COc4cc(C#N)ccc4N(C)C3=O)ncc2C)cc1F [Example 1, (S)—N-(8-cyano-5-methyl-4-oxo-2,3,4,5-tetrahydrobenzo[b][1,4]oxazepin-3-yl)-4-(3-fluoro-4-methylphenyl)-5-methylpyrimidine-2-carboxamide] | 12.4
4 | O=C(NC1CCc2ccccc2NC1=O)c1ncc(C2CC2)c(-c2ccccc2)n1 (stereo not drawn) [Example 2, 5-cyclopropyl-N-(2-oxo-2,3,4,5-tetrahydro-1H-benzo[b]azepin-3-yl)-4-phenylpyrimidine-2-carboxamide] | 509
5 | Cc1cnc(C(=O)NC2CCc3ccccc3NC2=O)nc1-c1ccccc1 (stereo not drawn) [Example 3, 5-methyl-N-(2-oxo-2,3,4,5-tetrahydro-1H-benzo[b]azepin-3-yl)-4-phenylpyrimidine-2-carboxamide] | 18.5
6 | O=C(NC1CCc2ccccc2NC1=O)c1nccc(-c2ccccc2)n1 (stereo not drawn) [Example 4, N-(2-oxo-2,3,4,5-tetrahydro-1H-benzo[b]azepin-3-yl)-4-phenylpyrimidine-2-carboxamide] | 2160
7 | Cc1cnc(C(=O)N[C@H]2COc3cc(C#N)ccc3N(C)C2=O)nc1-c1ccccc1 [Example 5, (S)-N-(8-cyano-5-methyl-4-oxo-2,3,4,5-tetrahydro-benzo[b][1,4]oxazepin-3-yl)-5-methyl-4-phenylpyrimidine-2-carboxamide] | 15.1
8 | Cc1cnc(C(=O)N[C@H]2COc3cccnc3N(C)C2=O)nc1-c1ccccc1 [Example 6, (S)-5-methyl-N-(5-methyl-4-oxo-2,3,4,5-tetrahydropyrido[3,2-b][1,4]oxazepin-3-yl)-4-phenylpyrimidine-2-carboxamide] | 12.5
9 | Cc1cnc(C(=O)NC2CCc3cc(F)cc(F)c3NC2=O)nc1-c1ccccc1 (stereo not drawn) [Example 7, N-(7,9-difluoro-2-oxo-2,3,4,5-tetrahydro-1H-benzo[b]azepin-3-yl)-5-methyl-4-phenylpyrimidine-2-carboxamide] | 22.2
10 | O=C(NC1CCc2ccccc2NC1=O)c1nc(-c2ccccc2)c(Cl)cc1Cl (stereo not drawn) [Example 8, 3,5-dichloro-N-(2-oxo-2,3,4,5-tetrahydro-1H-benzo[b]azepin-3-yl)-6-phenylpicolinamide] | 354
11 | Cc1cnc(C(=O)N[C@H]2CCc3ccccc3NC2=O)nc1-c1ccc(F)cc1 [Example 9, (S)-4-(4-fluorophenyl)-5-methyl-N-(2-oxo-2,3,4,5-tetrahydro-1H-benzo[b]azepin-3-yl)pyrimidine-2-carboxamide] | 10.2
12 | Cc1cnc(C(=O)N[C@H]2CCc3ccccc3NC2=O)nc1-c1ccc(F)c(F)c1 [Example 10, (S)-4-(3,4-difluorophenyl)-5-methyl-N-(2-oxo-2,3,4,5-tetrahydro-1H-benzo[b]azepin-3-yl)pyrimidine-2-carboxamide] | 15.4
13 | Cc1cnc(C(=O)N[C@H]2CCc3ccccc3NC2=O)nc1-c1cccc(F)c1 [Example 12, (S)-4-(3-fluorophenyl)-5-methyl-N-(2-oxo-2,3,4,5-tetrahydro-1H-benzo[b]azepin-3-yl)pyrimidine-2-carboxamide] | 14.6
14 | Cc1ccc(-c2nc(C(=O)N[C@H]3CCc4ccccc4NC3=O)ncc2C)cc1 [Example 13, (S)-5-methyl-N-(2-oxo-2,3,4,5-tetrahydro-1H-benzo[b]azepin-3-yl)-4-(p-tolyl)pyrimidine-2-carboxamide] | 27.6
15 | Cc1cnc(C(=O)N[C@H]2COc3cc(C#N)ccc3N(C)C2=O)nc1N1CCCCC1 [Example 14, (S)-N-(8-cyano-5-methyl-4-oxo-2,3,4,5-tetrahydro-benzo[b][1,4]oxazepin-3-yl)-5-methyl-4-(piperidin-1-yl)-pyrimidine-2-carboxamide] | 119
16 | Cc1cnc(C(=O)NC2CCn3nc(C(F)(F)F)cc3N(C)C2=O)nc1-c1ccccc1 (stereo not drawn) [Example 15, 5-methyl-N-(4-methyl-5-oxo-2-(trifluoromethyl)-5,6,7,8-tetrahydro-4H-pyrazolo[1,5-a][1,3]diazepin-6-yl)-4-phenyl-pyrimidine-2-carboxamide] | 498
17 | Cc1cnc(C(=O)N[C@@H]2C(=O)N(C)c3ncccc3O[C@@H]2C)nc1-c1ccccc1 [Example 16, N-((2R,3S)-2,5-dimethyl-4-oxo-2,3,4,5-tetrahydropyrido[3,2-b][1,4]oxazepin-3-yl)-5-methyl-4-phenylpyrimidine-2-carboxamide] | 36.1
18 | Cc1cnc(C(=O)N[C@H]2COc3cc(C#N)ccc3N(C)C2=O)nc1-c1ccc(F)c(F)c1 [Example 17, (S)-N-(8-cyano-5-methyl-4-oxo-2,3,4,5-tetrahydro-benzo[b][1,4]oxazepin-3-yl)-4-(3,4-difluorophenyl)-5-methyl-pyrimidine-2-carboxamide] | 40.8
19 | Cc1cnc(C(=O)Nc2cccc(Cl)c2F)nc1-c1ccccc1 [Example 18, N-(3-chloro-2-fluorophenyl)-5-methyl-4-phenylpyrimidine-2-carboxamide] | 1890
20 | Cc1cnc(C(=O)N[C@H]2COc3cc(C#N)ccc3N(C)C2=O)nc1N1CCC(F)(F)CC1 [Example 19, (S)-N-(8-cyano-5-methyl-4-oxo-2,3,4,5-tetrahydro-benzo[b][1,4]oxazepin-3-yl)-4-(4,4-difluoropiperidin-1-yl)-5-methylpyrimidine-2-carboxamide] | 748
21 | Cc1cnc(C(=O)N[C@H]2COc3cc(C#N)ccc3N(C)C2=O)nc1N1CCCC1 [Example 20, (S)-N-(8-cyano-5-methyl-4-oxo-2,3,4,5-tetrahydro-benzo[b][1,4]oxazepin-3-yl)-5-methyl-4-(pyrrolidin-1-yl)-pyrimidine-2-carboxamide] | 482
22 | Cc1cnc(C(=O)N[C@H]2COc3cccnc3N(C)C2=O)nc1-c1ccc(F)c(F)c1 [Example 21, (S)-4-(3,4-difluorophenyl)-5-methyl-N-(5-methyl-4-oxo-2,3,4,5-tetrahydropyrido[3,2-b][1,4]oxazepin-3-yl)pyrimidine-2-carboxamide] | 14.8
23 | Cc1cnc(C(=O)N[C@H]2COc3ccc(Br)cc3N(C)C2=O)nc1-c1ccccc1 [Example 22, (S)-N-(7-bromo-5-methyl-4-oxo-2,3,4,5-tetrahydro-benzo[b][1,4]oxazepin-3-yl)-5-methyl-4-phenylpyrimidine-2-carboxamide] | 12.1
24 | Cc1cnc(C(=O)N[C@H]2COc3cc(C#N)ccc3N(C)C2=O)nc1N1CCC(F)(F)C1 [Example 23, (S)-N-(8-cyano-5-methyl-4-oxo-2,3,4,5-tetrahydro-benzo[b][1,4]oxazepin-3-yl)-4-(3,3-difluoropyrrolidin-1-yl)-5-methylpyrimidine-2-carboxamide] | 830
25 | CN1C(=O)[C@@H](NC(=O)c2ncc(Cl)c(-c3ccccc3)n2)COc2cc(C#N)ccc21 [Example 24, (S)-5-chloro-N-(8-cyano-5-methyl-4-oxo-2,3,4,5-tetrahydro-benzo[b][1,4]oxazepin-3-yl)-4-phenylpyrimidine-2-carboxamide] | 19.2
26 | Cc1ccc(C(=O)Nc2cccc(Cl)c2F)nc1Br [Example 25, 6-bromo-N-(3-chloro-2-fluorophenyl)-5-methyl-picolinamide] | ≥ 10000
27 | Cc1cnc(C(=O)N[C@H]2COc3ccc(N4CC5(CCOCC5)C4)cc3N(C)C2=O)nc1-c1ccccc1 [Example 26, (S)-5-methyl-N-(5-methyl-4-oxo-7-(7-oxa-2-azaspiro[3.5]nonan-2-yl)-2,3,4,5-tetrahydrobenzo[b]-[1,4]oxazepin-3-yl)-4-phenyl-pyrimidine-2-carboxamide] | 14.6
28 | CN1C(=O)[C@@H](NC(=O)c2ncc(Cl)c(-c3ccccc3)n2)COc2cccnc21 [Example 27, (S)-5-chloro-N-(5-methyl-4-oxo-2,3,4,5-tetrahydropyrido[3,2-b][1,4]oxazepin-3-yl)-4-phenylpyrimidine-2-carboxamide] | 26.7
29 | Cc1cnc(C(=O)N[C@H]2COc3cc(Br)cnc3N(C)C2=O)nc1-c1ccccc1 [Example 29, (S)-N-(8-bromo-5-methyl-4-oxo-2,3,4,5-tetrahydropyrido[3,2-b][1,4]oxazepin-3-yl)-5-methyl-4-phenylpyrimidine-2-carboxamide] | 11.7
30 | Cc1ccc(-c2nc(C(=O)N[C@H]3COc4cc(C#N)ccc4N(C)C3=O)ncc2C)c(F)c1 [Example 30, (S)-N-(8-cyano-5-methyl-4-oxo-2,3,4,5-tetrahydro-benzo[b][1,4]oxazepin-3-yl)-4-(2-fluoro-4-methylphenyl)-5-methylpyrimidine-2-carboxamide] | 32.3
